The MIC is the lowest concentration that inhibits growth of the organism. A high value points to a less susceptible organism.

This passage reports MIC results from ChEMBL document CHEMBL1131977, “Synthesis and in vitro activity of new oxazolidinone antibacterial agents having substituted isoxazoles” (1999).

Converted amounts (≈) assume the structure as drawn.

The first assay has as its system Enterococcus faecium. The assay can be described thus: In vitro antibacterial activity against Enterococcus faecium C6301 (E.f.2). In kind it is functional.
With `CC(=O)NC[C@H]1CN(c2ccc(N3CCN(Cc4cc(-c5ccc(F)cc5)no4)CC3)c(F)c2)C(=O)O1`, inhibition of growth (MIC) required 4 µg/mL (≈ 7.82 µM).
Regarding `CC(=O)NC[C@H]1CN(c2ccc(N3CCN(C(=O)c4nccs4)CC3)c(F)c2)C(=O)O1`, the MIC was 4 µg/mL (≈ 8.94 µM).
On the same count and under the same terms, in the case of `COc1ccc(-c2cc(CN3CCN(c4ccc(N5C[C@H](CNC(C)=O)OC5=O)cc4F)CC3)on2)cc1OC` it was 4 µg/mL (≈ 7.23 µM); in that of `CC(=O)NC[C@H]1CN(c2ccc(N3CCN(C(=O)c4cc(-c5cccs5)no4)CC3)c(F)c2)C(=O)O1`, 1 µg/mL (≈ 1.95 µM).

The next assay deals with Enterococcus faecium. The assay can be described thus: In vitro antibacterial activity against vancomycin-resistant Enterococcus faecium C6487 (VRE). In kind it is functional.
In turn, `CC(=O)NC[C@H]1CN(c2ccc(N3CCN(Cc4cc(-c5ccc(F)cc5)no4)CC3)c(F)c2)C(=O)O1` came in with an MIC of 4 µg/mL (≈ 7.82 µM).
`CC(=O)NC[C@H]1CN(c2ccc(N3CCN(C(=O)c4nccs4)CC3)c(F)c2)C(=O)O1`: the MIC worked out at 4 µg/mL (≈ 8.94 µM).
In turn, `COc1ccc(-c2cc(CN3CCN(c4ccc(N5C[C@H](CNC(C)=O)OC5=O)cc4F)CC3)on2)cc1OC` gave an MIC of 2 µg/mL (≈ 3.61 µM).
In turn, `CC(=O)NC[C@H]1CN(c2ccc(N3CCN(C(=O)c4cc(-c5cccs5)no4)CC3)c(F)c2)C(=O)O1` came in with an MIC of 1 µg/mL (≈ 1.95 µM).

The test system of another assay is Enterococcus faecalis. In words: In vitro antibacterial activity against Enterococcus faecalis C6291 (E.f.1). The class given is functional.
For the compound `CC(=O)NC[C@H]1CN(c2ccc(N3CCN(Cc4cc(-c5ccc(F)cc5)no4)CC3)c(F)c2)C(=O)O1`, the MIC came to 4 µg/mL (≈ 7.82 µM).
The compound `CC(=O)NC[C@H]1CN(c2ccc(N3CCN(C(=O)c4nccs4)CC3)c(F)c2)C(=O)O1` had an MIC of 4 µg/mL (≈ 8.94 µM).
The compound `COc1ccc(-c2cc(CN3CCN(c4ccc(N5C[C@H](CNC(C)=O)OC5=O)cc4F)CC3)on2)cc1OC` displayed an MIC of 4 µg/mL (≈ 7.23 µM).
On to `CC(=O)NC[C@H]1CN(c2ccc(N3CCN(C(=O)c4cc(-c5cccs5)no4)CC3)c(F)c2)C(=O)O1`, for which the minimum inhibitory concentration (MIC) turned out to be 1 µg/mL (≈ 1.95 µM).

A further assay deals with Staphylococcus epidermidis. In words: In vitro antibacterial activity against Staphylococcus epidermis (S.e.1) […]. The class given is functional.
Regarding `CC(=O)NC[C@H]1CN(c2ccc(N3CCN(Cc4cc(-c5ccc(F)cc5)no4)CC3)c(F)c2)C(=O)O1`, the MIC was determined as 2 µg/mL (≈ 3.91 µM).
Same read-out and setting: in the case of `CC(=O)NC[C@H]1CN(c2ccc(N3CCN(C(=O)c4nccs4)CC3)c(F)c2)C(=O)O1` it was 1 µg/mL (≈ 2.23 µM).
For `COc1ccc(-c2cc(CN3CCN(c4ccc(N5C[C@H](CNC(C)=O)OC5=O)cc4F)CC3)on2)cc1OC`, the MIC is 2 µg/mL (≈ 3.61 µM).
On the same count and under the same terms, in the case of `CC(=O)NC[C@H]1CN(c2ccc(N3CCN(C(=O)c4cc(-c5cccs5)no4)CC3)c(F)c2)C(=O)O1` it was 0.25 µg/mL (≈ 0.487 µM).

The test system of another assay is Staphylococcus epidermidis. The assay can be described thus: In vitro antibacterial activity against Staphylococcus epidermis (S.e.2) C2235. In kind it is functional.
Consider `CC(=O)NC[C@H]1CN(c2ccc(N3CCN(Cc4cc(-c5ccc(F)cc5)no4)CC3)c(F)c2)C(=O)O1`, for which the MIC was found to be 4 µg/mL (≈ 7.82 µM).
`CC(=O)NC[C@H]1CN(c2ccc(N3CCN(C(=O)c4nccs4)CC3)c(F)c2)C(=O)O1` yielded a minimal inhibitory concentration (MIC) of 2 µg/mL (≈ 4.47 µM).
In the case of `COc1ccc(-c2cc(CN3CCN(c4ccc(N5C[C@H](CNC(C)=O)OC5=O)cc4F)CC3)on2)cc1OC`, the MIC turned out to be 4 µg/mL (≈ 7.23 µM).
`CC(=O)NC[C@H]1CN(c2ccc(N3CCN(C(=O)c4cc(-c5cccs5)no4)CC3)c(F)c2)C(=O)O1` gave a minimum inhibitory concentration (MIC) of 1 µg/mL (≈ 1.95 µM).

Another assay concerns Staphylococcus aureus. In words: In vitro antibacterial activity against ciprofloxacin-resistant Staphylococcus aureus (CRSA) C6043. In kind it is functional.
As to `CC(=O)NC[C@H]1CN(c2ccc(N3CCN(Cc4cc(-c5ccc(F)cc5)no4)CC3)c(F)c2)C(=O)O1`, the MIC was 8 µg/mL (≈ 15.6 µM).
Turning to `CC(=O)NC[C@H]1CN(c2ccc(N3CCN(C(=O)c4nccs4)CC3)c(F)c2)C(=O)O1`, the MIC was determined as 4 µg/mL (≈ 8.94 µM).
`COc1ccc(-c2cc(CN3CCN(c4ccc(N5C[C@H](CNC(C)=O)OC5=O)cc4F)CC3)on2)cc1OC` showed an MIC of 4 µg/mL (≈ 7.23 µM).
Regarding `CC(=O)NC[C@H]1CN(c2ccc(N3CCN(C(=O)c4cc(-c5cccs5)no4)CC3)c(F)c2)C(=O)O1`, the minimum inhibitory concentration (MIC) was 1 µg/mL (≈ 1.95 µM).

For a further assay, the system named is Staphylococcus aureus. In words: In vitro antibacterial activity against Staphylococcus aureus (S. a.) ATCC 29213. In kind it is functional.
Compound `CC(=O)NC[C@H]1CN(c2ccc(N3CCN(Cc4cc(-c5ccc(F)cc5)no4)CC3)c(F)c2)C(=O)O1` returned an MIC of 8 µg/mL (≈ 15.6 µM).
As for `CC(=O)NC[C@H]1CN(c2ccc(N3CCN(C(=O)c4nccs4)CC3)c(F)c2)C(=O)O1`, 4 µg/mL (≈ 8.94 µM) was the least that counted as inhibitory (MIC).
As for `COc1ccc(-c2cc(CN3CCN(c4ccc(N5C[C@H](CNC(C)=O)OC5=O)cc4F)CC3)on2)cc1OC`, it took 4 µg/mL (≈ 7.23 µM) to inhibit growth (MIC).
Compound `CC(=O)NC[C@H]1CN(c2ccc(N3CCN(C(=O)c4cc(-c5cccs5)no4)CC3)c(F)c2)C(=O)O1` showed an MIC of 1 µg/mL (≈ 1.95 µM).

For the next assay, the system named is Staphylococcus aureus. In words: In vitro antibacterial activity against methicillin-resistant Staphylococcus aureus (MRSA) C6068. In kind it is functional.
Regarding `CC(=O)NC[C@H]1CN(c2ccc(N3CCN(Cc4cc(-c5ccc(F)cc5)no4)CC3)c(F)c2)C(=O)O1`, the MIC stood at 4 µg/mL (≈ 7.82 µM).
Turning to `CC(=O)NC[C@H]1CN(c2ccc(N3CCN(C(=O)c4nccs4)CC3)c(F)c2)C(=O)O1`, it took 2 µg/mL (≈ 4.47 µM) to inhibit growth (MIC).
The compound `COc1ccc(-c2cc(CN3CCN(c4ccc(N5C[C@H](CNC(C)=O)OC5=O)cc4F)CC3)on2)cc1OC` displayed an MIC of 2 µg/mL (≈ 3.61 µM).
The compound `CC(=O)NC[C@H]1CN(c2ccc(N3CCN(C(=O)c4cc(-c5cccs5)no4)CC3)c(F)c2)C(=O)O1` registered an MIC of 1 µg/mL (≈ 1.95 µM).

The test system of the next assay is Staphylococcus aureus. In words: In vitro antibacterial activity against methicillin-susceptible Staphylococcus aureus (MSSA) C2214. In kind it is functional.
With `CC(=O)NC[C@H]1CN(c2ccc(N3CCN(Cc4cc(-c5ccc(F)cc5)no4)CC3)c(F)c2)C(=O)O1`, the lowest concentration to inhibit growth (MIC) was 8 µg/mL (≈ 15.6 µM).
As for `CC(=O)NC[C@H]1CN(c2ccc(N3CCN(C(=O)c4nccs4)CC3)c(F)c2)C(=O)O1`, the MIC came to 4 µg/mL (≈ 8.94 µM).
With `COc1ccc(-c2cc(CN3CCN(c4ccc(N5C[C@H](CNC(C)=O)OC5=O)cc4F)CC3)on2)cc1OC`, it took 4 µg/mL (≈ 7.23 µM) to inhibit growth (MIC).
`CC(=O)NC[C@H]1CN(c2ccc(N3CCN(C(=O)c4cc(-c5cccs5)no4)CC3)c(F)c2)C(=O)O1` registered an MIC of 1 µg/mL (≈ 1.95 µM).

Another assay relates to Streptococcus pyogenes. The assay can be described thus: In vitro antibacterial activity against Streptococcus pyogenes ATCC 8668 (S.p.1). The class given is functional.
For `CC(=O)NC[C@H]1CN(c2ccc(N3CCN(Cc4cc(-c5ccc(F)cc5)no4)CC3)c(F)c2)C(=O)O1`, the lowest concentration to inhibit growth (MIC) was 2 µg/mL (≈ 3.91 µM).
The same measure, in the same setting: to `CC(=O)NC[C@H]1CN(c2ccc(N3CCN(C(=O)c4nccs4)CC3)c(F)c2)C(=O)O1` belongs 1 µg/mL (≈ 2.23 µM); to `COc1ccc(-c2cc(CN3CCN(c4ccc(N5C[C@H](CNC(C)=O)OC5=O)cc4F)CC3)on2)cc1OC`, 2 µg/mL (≈ 3.61 µM).
The same measure, in the same setting: to `CC(=O)NC[C@H]1CN(c2ccc(N3CCN(C(=O)c4cc(-c5cccs5)no4)CC3)c(F)c2)C(=O)O1` belongs 0.5 µg/mL (≈ 0.974 µM).

In another assay the test system is Streptococcus pyogenes. The assay can be described thus: In vitro antibacterial activity against Streptococcus pyogenes C6003 (S.p.2). In kind it is functional.
For `CC(=O)NC[C@H]1CN(c2ccc(N3CCN(Cc4cc(-c5ccc(F)cc5)no4)CC3)c(F)c2)C(=O)O1`, it took 2 µg/mL (≈ 3.91 µM) to inhibit growth (MIC).
Consider `CC(=O)NC[C@H]1CN(c2ccc(N3CCN(C(=O)c4nccs4)CC3)c(F)c2)C(=O)O1`, for which the MIC worked out at 1 µg/mL (≈ 2.23 µM).
Compound `COc1ccc(-c2cc(CN3CCN(c4ccc(N5C[C@H](CNC(C)=O)OC5=O)cc4F)CC3)on2)cc1OC` registered an MIC of 1 µg/mL (≈ 1.81 µM).
`CC(=O)NC[C@H]1CN(c2ccc(N3CCN(C(=O)c4cc(-c5cccs5)no4)CC3)c(F)c2)C(=O)O1` yielded an MIC of 0.5 µg/mL (≈ 0.974 µM).
